2 compounds from US20210283163A1, “COMPOSITIONS AND METHODS FOR THE TREATMENT OF ACUTE AND CHRONIC PRURITIS” (Duke University, priority 2018, published 2021) can be followed below.

One data set has as its target T1, TRPV3 (Mus musculus, UniProt Q8K424).
T1 construct: expressed in transfected cells; host or cells: CHO cells (ATCC CRL-9096), plasmid pcDNA3.1-mTrpv3, a gift from Korea University
T1 sequence (Q8K424 1-791): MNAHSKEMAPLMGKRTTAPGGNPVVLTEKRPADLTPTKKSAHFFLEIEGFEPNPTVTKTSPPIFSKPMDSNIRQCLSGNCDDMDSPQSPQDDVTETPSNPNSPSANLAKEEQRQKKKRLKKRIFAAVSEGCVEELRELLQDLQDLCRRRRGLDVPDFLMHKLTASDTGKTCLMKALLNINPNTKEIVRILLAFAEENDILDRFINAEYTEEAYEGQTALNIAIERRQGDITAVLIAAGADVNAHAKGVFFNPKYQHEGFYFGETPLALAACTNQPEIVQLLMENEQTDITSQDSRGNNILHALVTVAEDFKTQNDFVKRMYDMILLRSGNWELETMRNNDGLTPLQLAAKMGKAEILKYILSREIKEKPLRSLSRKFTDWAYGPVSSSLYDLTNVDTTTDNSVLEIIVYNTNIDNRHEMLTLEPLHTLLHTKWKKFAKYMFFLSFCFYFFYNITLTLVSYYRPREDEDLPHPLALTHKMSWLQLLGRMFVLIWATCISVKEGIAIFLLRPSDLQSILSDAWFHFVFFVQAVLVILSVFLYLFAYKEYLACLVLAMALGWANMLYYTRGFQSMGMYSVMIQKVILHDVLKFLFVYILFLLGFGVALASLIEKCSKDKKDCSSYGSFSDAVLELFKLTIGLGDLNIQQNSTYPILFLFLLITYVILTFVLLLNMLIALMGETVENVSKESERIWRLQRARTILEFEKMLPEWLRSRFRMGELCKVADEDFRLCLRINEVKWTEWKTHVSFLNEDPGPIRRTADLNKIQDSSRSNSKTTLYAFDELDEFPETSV
Nature of the data set: Whole-cell patch clamp in CHO cells transfected with mouse Trpv3 cDNA. It is filed as cell-based. Conditions: miR-711 10 μM; carvacrol 300 μM. The procedure:
Constructs. The cDNAs of mouse pcDNA3.1-Trpa1, pcDNA3.1-Trpv1, pcDNA3.1-Trpv2, pcDNA3.1-Trpv3, and pcDNA3.1-Trpv4 were kindly provided Dr. Sun Work Hwang from Korea University. Mouse Trpa1 cDNA was subcloned into pCGN-HA backbone (Addgene) using In-Fusion HD Cloning Kit (Clontech Laboratories, CA). Q5 Site-Directed Mutagenesis Kit was used to generate mTrpa1 mutant (M1-M13) based on pCGN-mTrpa1.
Cell Culture and Transfection. CD4^+ Myla cell line was cultured in RPMI 1640 media (GIBCO), supplemented with 2 mM Glutamine (GIBCO), 100 U/mL IL-2 (Sigma), 100 U/mL IL-4 (Sigma), and 10% human AB serum (Sigma). HuT 102 cell line was cultured in RPMI 1640 supplemented with pyruvate, HEPES, and 10% (v/v) fetal bovine serum (HyClone). HEK293-hTRPA1 stable cell line was cultured in MEM (GIBCO) containing 2 mM Glutamine, 4 μg/mL Blasticidin, 10% FBS (v/v). B16 and CHO cells were cultured in high glucose (4.5 g/L) Dulbecco's Modified Eagle's Medium (GIBCO) containing 10% (v/v) fetal bovine serum (GIBCO). Culture media were supplemented with 50 units/mL of penicillin and 50 μg/mL streptomycin, and cultures were maintained with 5% CO2 in 37° C. incubator. Transfection (2 μg cDNA) was performed with Lipofectamine™ 2000 Reagent (Invitrogen) at 80% confluency and the transfected cells were cultured in the same media for 48 hr before electrophysiological and biochemical studies. […]
(In general: The patch-clamp technique gives a direct electrical read-out from membranes.)

A further data set relates to human DRG neurons. Nature of the data set: Whole-cell patch clamp, inward currents in human DRG neurons. The following applies: A967079 10 μM. It is filed as cell-based. As for the experimental part:
Non-diseased human DRGs were obtained from donors through National Disease Research Interchange (NDRI) with permission of exemption from the Duke University Institutional Review Board (IRB). Postmortem L3-L5 DRGs were dissected from 4 donors and delivered in ice cold culture medium to the laboratory at Duke University within 24-72 hr of the donor's death. Upon the delivery, DRGs were rapidly dissected from nerve roots and minced in a calcium-free HBSS (GIBCO). Human DRG cultures were prepared as previously reported (Chang et al., Neurosci. Bull. 2018, 34, 4-12; Han et al., Neuron 2016, 92, 1279-1293). DRGs were digested at 37° C. in a humidified CO2 incubator for 120 min with collagenase Type II (Worthington, 290 units/mg, 12 mg/mL final concentration) and dispase II (Roche, 1 unit/mg, 20 mg/mL) in PBS with 10 mM HEPES, pH adjusted to 7.4 with NaOH. DRGs were mechanically dissociated using fire-polished pipettes, filtered through a 100 μm nylon mesh and centrifuged (500 g for 5 min). The pellet was resuspended, plated on 0.5 mg/mL poly-D-lysine-coated glass coverslips, and grown in Neurobasal medium supplemented with 10% FBS, 2% B-27 supplement, and 1% penicillin/streptomycin. Whole-cell patch-clamp recordings in small (<[…]) human DRG neurons were conducted at room temperature using patch pipettes with resistances of 3-4 MΩ.
Whole-Cell Patch Clamp Recordings in HEK293 Cells, CHO Cells, and DRG Neurons. Whole-cell patch clamp recordings were performed at room temperature using an Axopatch-200B amplifier (Axon Instruments) with a Digidata 1440B (Axon Instruments). In this study, we only examined small-diameter mouse DRG neurons (<25 μM) and small-diameter human DRG neurons (<55 μM). The patch pipettes were pulled from borosilicate capillaries (World Precision Instruments) using a P-97 Flaming/Brown micropipette puller (Sutter Instrument). Pipette resistance was 4-6 MΩ for whole-cell and outside-out recording. […]

Take “miR-711: mmu-miR-711: gggacccggggagagauguaag (SEQ ID NO: 5) (GGGACCCGGGGAGAGAUGUAAG; chemistry not given here)”: in the data set with TRPV3, the inward currents entry is “failed to trigger inward currents”.
Consider `CCC(=N\O)/C(C)=C/c1ccc(F)cc1` [A967079, (1E,3E)-1-(4-Fluorophenyl)-2-methyl-1-pentene-3-one oxime], for which the “block of miRNA-evoked inward currents in human DRG neurons” value with human DRG neurons was “blocked”.
